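Briefly, cells in 96-well plates were exposed to five compound concentrations for 48 h, and endpoints were estimated by linear interpolation. TGI denotes the concentration required for complete inhibition of growth.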
Tests used:
Experiment in all cases: NCI anticancer screen, dose series, 48 h
[1] = test system: UO-31 renal
[2] = test system: OVCAR-5 ovarian
[3] = test system: CCRF-CEM leukemia
[4] = test system: PC-3 prostate
[5] = test system: MALME-3M melanoma
[6] = test system: SF-539 CNS
[7] = test system: TK-10 renal
[8] = test system: HCT-116 colon
[9] = test system: RXF 393 renal
[10] = test system: EKVX NSCLC
[11] = test system: 786-0 renal
[12] = test system: SK-OV-3 ovarian
[13] = test system: M14 melanoma
[14] = test system: SN12C renal
[15] = test system: SK-MEL-5 melanoma
[16] = test system: UACC-62 melanoma
[17] = test system: DU-145 prostate
[18] = test system: A549 NSCLC
[19] = test system: SR leukemia
[20] = test system: A498 renal
[21] = test system: MDA-MB-435
[22] = test system: K-562 leukemia
[23] = test system: T-47D breast
[24] = test system: OVCAR-3 ovarian
[25] = test system: SK-MEL-2 melanoma
[26] = test system: BT-549 breast
[27] = test system: SF-295 CNS
[28] = test system: UACC-257 melanoma
[29] = test system: HCC-2998 colon
[30] = test system: HOP-62 NSCLC
[31] = test system: NCI-H522 lung
[32] = test system: MDA-MB-231 breast
[33] = test system: COLO 205 colon
[34] = test system: RPMI-8226 leukemia
[35] = test system: MOLT-4 leukemia
[36] = test system: MDA-N
[37] = test system: MCF7 breast
[38] = test system: NCI-H23 lung
[39] = test system: IGROV1 ovarian
[40] = test system: CAKI-1 renal
[41] = test system: U251 CNS
[42] = test system: LOX IMVI melanoma
[43] = test system: OVCAR-4 ovarian
[44] = test system: NCI-H460 lung
[45] = test system: SNB-75 CNS
[46] = test system: HT29 colon
[47] = test system: SK-MEL-28 melanoma
[48] = test system: KM12 colon
[49] = test system: SNB-19 CNS
[50] = test system: HCT-15 colon
[51] = test system: NCI-H226 lung
[52] = test system: HS 578T breast
[53] = test system: NCI/ADR-RES ovarian
[54] = test system: HOP-92 NSCLC
[55] = test system: SW-620 colon
[56] = test system: SF-268 CNS
[57] = test system: HL-60(TB) leukemia
[58] = test system: ACHN renal
[59] = test system: OVCAR-8 ovarian

## COc1c(-c2ccccc2)oc2c(CP(=O)(OC)OC)cccc2c1=O
[1]
  TGI: 41.9 µM
[2]
  TGI: > 100 µM
[3]
  TGI: > 100 µM
[4]
  TGI: > 100 µM
[5]
  TGI: > 100 µM
[6]
  TGI: > 100 µM
[7]
  TGI: > 100 µM
[8]
  TGI: > 100 µM
[9]
  TGI: > 100 µM
[10]
  TGI: > 100 µM
[11]
  TGI: > 100 µM
[12]
  TGI: > 100 µM
[13]
  TGI: > 100 µM
[14]
  TGI: > 100 µM
[15]
  TGI: > 100 µM
[16]
  TGI: > 100 µM
[17]
  TGI: > 100 µM
[18]
  TGI: > 100 µM
[19]
  TGI: > 100 µM
[20]
  TGI: > 100 µM
[21]
  TGI: > 100 µM
[22]
  TGI: > 100 µM
[23]
  TGI: > 100 µM
[24]
  TGI: > 100 µM
[25]
  TGI: > 100 µM
[26]
  TGI: > 100 µM
[27]
  TGI: > 100 µM
[28]
  TGI: > 100 µM
[29]
  TGI: > 100 µM
[30]
  TGI: > 100 µM
[31]
  TGI: > 100 µM
[32]
  TGI: > 100 µM
[33]
  TGI: > 100 µM
[34]
  TGI: 53.8 µM
[35]
  TGI: > 100 µM
[36]
  TGI: > 100 µM
[37]
  TGI: > 100 µM
[38]
  TGI: > 100 µM
[39]
  TGI: > 100 µM
[40]
  TGI: 5.11 µM
[41]
  TGI: > 100 µM

## CCCCCc1c(Cl)nc(Cl)nc1Cl
[42]
  TGI: 6.01 µM
[43]
  TGI: 43 µM
[1]
  TGI: 37.9 µM
[2]
  TGI: 31.1 µM
[44]
  TGI: 51.9 µM
[3]
  TGI: 0.65 µM
[4]
  TGI: 36.9 µM
[5]
  TGI: 28.1 µM
[6]
  TGI: 29.9 µM
[7]
  TGI: 32.2 µM
[45]
  TGI: 93.1 µM
[46]
  TGI: 18.5 µM
[8]
  TGI: 14.1 µM
[9]
  TGI: 23.7 µM
[10]
  TGI: 52 µM
[11]
  TGI: 12.8 µM
[12]
  TGI: 31.8 µM
[13]
  TGI: 5.46 µM
[14]
  TGI: 10.8 µM
[15]
  TGI: 18.1 µM
[47]
  TGI: 46.5 µM
[16]
  TGI: 43.3 µM
[17]
  TGI: 45.5 µM
[18]
  TGI: > 92.3 µM
[19]
  TGI: 0.86 µM
[48]
  TGI: 28.6 µM
[20]
  TGI: 34.7 µM
[21]
  TGI: 6.98 µM
[49]
  TGI: 38.9 µM
[50]
  TGI: 29.9 µM
[51]
  TGI: 6.02 µM
[22]
  TGI: 7.45 µM
[52]
  TGI: > 100 µM
[23]
  TGI: 52.2 µM
[24]
  TGI: 30.8 µM
[53]
  TGI: 46.3 µM
[27]
  TGI: 53.7 µM
[28]
  TGI: 29.7 µM
[54]
  TGI: 15.3 µM
[29]
  TGI: 27 µM
[55]
  TGI: 26.2 µM
[30]
  TGI: 39.7 µM
[31]
  TGI: 6.61 µM
[32]
  TGI: 17.8 µM
[33]
  TGI: 27 µM
[56]
  TGI: 49.2 µM
[57]
  TGI: 5.93 µM
[34]
  TGI: 12.3 µM
[35]
  TGI: 1.01 µM
[58]
  TGI: 77.7 µM
[59]
  TGI: 25.9 µM
[36]
  TGI: 16.6 µM
[37]
  TGI: 27.3 µM
[38]
  TGI: 16 µM
[39]
  TGI: 31.9 µM
[40]
  TGI: 8.6 µM
[41]
  TGI: 25.1 µM

## CCOC(=O)c1c(O)cc(=O)[nH]c1N1CCOCC1
[42]
  TGI: > 100 µM
[1]
  TGI: > 100 µM
[2]
  TGI: > 100 µM
[44]
  TGI: > 100 µM
[3]
  TGI: > 100 µM
[4]
  TGI: > 100 µM
[6]
  TGI: > 100 µM
[45]
  TGI: > 100 µM
[46]
  TGI: > 100 µM
[8]
  TGI: > 100 µM
[10]
  TGI: > 100 µM
[11]
  TGI: > 100 µM
[12]
  TGI: > 100 µM
[13]
  TGI: > 100 µM
[14]
  TGI: > 100 µM
[15]
  TGI: > 100 µM
[47]
  TGI: > 100 µM
[16]
  TGI: > 100 µM
[17]
  TGI: > 100 µM
[18]
  TGI: > 100 µM
[19]
  TGI: > 100 µM
[48]
  TGI: > 100 µM
[20]
  TGI: > 100 µM
[21]
  TGI: > 100 µM
[49]
  TGI: > 100 µM
[50]
  TGI: > 100 µM
[51]
  TGI: > 100 µM
[22]
  TGI: > 100 µM
[23]
  TGI: > 100 µM
[24]
  TGI: > 100 µM
[25]
  TGI: > 100 µM
[26]
  TGI: > 100 µM
[53]
  TGI: > 100 µM
[27]
  TGI: > 100 µM
[28]
  TGI: > 100 µM
[54]
  TGI: > 100 µM
[29]
  TGI: > 100 µM
[55]
  TGI: > 100 µM
[30]
  TGI: > 100 µM
[33]
  TGI: > 100 µM
[34]
  TGI: > 100 µM
[35]
  TGI: > 100 µM
[58]
  TGI: > 100 µM
[59]
  TGI: > 100 µM
[36]
  TGI: > 100 µM
[37]
  TGI: > 100 µM
[38]
  TGI: > 100 µM
[39]
  TGI: > 100 µM
[40]
  TGI: > 100 µM
[41]
  TGI: > 100 µM

— PubChem BioAssay (NCI)
